Results published in PubChem BioAssay (NCI).
Values joined by “and” are separate entries in the source; they are usually repeats but may differ in a detail not shown here. Identical values can stand only once.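 Growth conditions: 96-well plates. Treatment: test compound, 48 hours, 5 concentrations. Analysis: linear interpolation between bracketing concentrations; unreached endpoints set to highest concentration. Here, GI50 denotes the concentration required for 50% inhibition of growth. The concentration for full growth arrest is given as TGI.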

How the values were obtained:
Assay in all cases: growth of human tumour cells (NCI), 48 h
786-0 renal = system: 786-0 renal
A498 renal = system: A498 renal
A549 NSCLC = system: A549 NSCLC
ACHN renal = system: ACHN renal
BT-549 breast = system: BT-549 breast
CAKI-1 renal = system: CAKI-1 renal
CCRF-CEM leukemia = system: CCRF-CEM leukemia
COLO 205 colon = system: COLO 205 colon
DU-145 prostate = system: DU-145 prostate
EKVX NSCLC = system: EKVX NSCLC
HCC-2998 colon = system: HCC-2998 colon
HCT-116 colon = system: HCT-116 colon
HCT-15 colon = system: HCT-15 colon
HL-60(TB) leukemia = system: HL-60(TB) leukemia
HOP-62 NSCLC = system: HOP-62 NSCLC
HOP-92 NSCLC = system: HOP-92 NSCLC
HS 578T breast = system: HS 578T breast
HT29 colon = system: HT29 colon
IGROV1 ovarian = system: IGROV1 ovarian
K-562 leukemia = system: K-562 leukemia
KM12 colon = system: KM12 colon
LOX IMVI melanoma = system: LOX IMVI melanoma
M14 melanoma = system: M14 melanoma
MALME-3M melanoma = system: MALME-3M melanoma
MCF7 breast = system: MCF7 breast
MDA-MB-231 breast = system: MDA-MB-231 breast
MOLT-4 leukemia = system: MOLT-4 leukemia
NCI-H226 lung = system: NCI-H226 lung
NCI-H23 lung = system: NCI-H23 lung
NCI-H460 lung = system: NCI-H460 lung
NCI-H522 lung = system: NCI-H522 lung
NCI/ADR-RES ovarian = system: NCI/ADR-RES ovarian
OVCAR-3 ovarian = system: OVCAR-3 ovarian
OVCAR-4 ovarian = system: OVCAR-4 ovarian
OVCAR-5 ovarian = system: OVCAR-5 ovarian
OVCAR-8 ovarian = system: OVCAR-8 ovarian
PC-3 prostate = system: PC-3 prostate
RPMI-8226 leukemia = system: RPMI-8226 leukemia
RXF 393 renal = system: RXF 393 renal
SF-268 CNS = system: SF-268 CNS
SF-295 CNS = system: SF-295 CNS
SF-539 CNS = system: SF-539 CNS
SK-MEL-2 melanoma = system: SK-MEL-2 melanoma
SK-MEL-28 melanoma = system: SK-MEL-28 melanoma
SK-MEL-5 melanoma = system: SK-MEL-5 melanoma
SK-OV-3 ovarian = system: SK-OV-3 ovarian
SN12C renal = system: SN12C renal
SNB-19 CNS = system: SNB-19 CNS
SNB-75 CNS = system: SNB-75 CNS
SR leukemia = system: SR leukemia
SW-620 colon = system: SW-620 colon
T-47D breast = system: T-47D breast
TK-10 renal = system: TK-10 renal
U251 CNS = system: U251 CNS
UACC-257 melanoma = system: UACC-257 melanoma
UACC-62 melanoma = system: UACC-62 melanoma
UO-31 renal = system: UO-31 renal

In the case of `CC[C@@H]1C(=O)N(C)c2cnc(Nc3ccc(C(=O)NC4CCN(C)CC4)cc3OC)nc2N1C1CCCC1`, the GI50 (786-0 renal) is reported as 25 nM and 45.1 nM, the TGI (786-0 renal) is reported as 1620 nM and 3980 nM and the GI50 (A498 renal) is reported as 24.5 nM and 24.6 nM. The TGI (A498 renal) was 146 nM and 368 nM, the GI50 (A549 NSCLC) was 6.02 nM and < 11.3 nM and the TGI (A549 NSCLC) was > 10000 nM and 3500 nM. The GI50 (ACHN renal) was 148 nM and 89.5 nM, the TGI (ACHN renal) was > 5110 nM and 2240 nM and the GI50 (BT-549 breast) was 94.8 nM and 41.4 nM. For the same compound, the TGI (BT-549 breast) was > 10000 nM and 12200 nM, the GI50 (CAKI-1 renal) was 297 nM and 476 nM and the TGI (CAKI-1 renal) was > 10000 nM and 13600 nM. The GI50 (CCRF-CEM leukemia) was 2.36 nM and < 10 nM, the TGI (CCRF-CEM leukemia) was 2900 nM and 1260 nM and the GI50 (COLO 205 colon) was 3.26 nM and < 10 nM. It also gave a TGI (COLO 205 colon) of 111 nM, a GI50 (DU-145 prostate) of 3.63 nM and a TGI (DU-145 prostate) greater than 10000 nM. For the same compound, the GI50 (EKVX NSCLC) was 26.3 nM and 161 nM, the TGI (EKVX NSCLC) was > 10000 nM and 21500 nM and the GI50 (HCC-2998 colon) was 4.26 nM and < 10 nM. The TGI (HCC-2998 colon) was 1420 nM and 506 nM, the GI50 (HCT-116 colon) was 3.66 nM and < 10 nM and the TGI (HCT-116 colon) was > 4050 nM and 1450 nM. The GI50 (HCT-15 colon) was 186 nM and 219 nM, the TGI (HCT-15 colon) was > 4570 nM and 6380 nM and the GI50 (HL-60(TB) leukemia) was 2.31 nM and < 10 nM. The TGI (HL-60(TB) leukemia) was 6.31 nM and 44.5 nM, the GI50 (HOP-62 NSCLC) was 5.33 nM and < 10 nM and the TGI (HOP-62 NSCLC) was > 10000 nM and 6350 nM. For the same compound, the GI50 (HOP-92 NSCLC) was 12.5 nM and 14.9 nM, the TGI (HOP-92 NSCLC) was 563 nM and 2360 nM and the GI50 (HS 578T breast) was 8.42 nM and 18.8 nM. For the same compound, the TGI (HS 578T breast) was 394 nM and 475 nM, the GI50 (HT29 colon) was 3.6 nM and < 10 nM and the TGI (HT29 colon) was > 4710 nM and 10300 nM. The TGI (IGROV1 ovarian) was 4150 nM and 11800 nM, the GI50 (K-562 leukemia) was 3.67 nM and < 10 nM and the TGI (K-562 leukemia) was > 10000 nM and 3540 nM. The GI50 (KM12 colon) was 3.46 nM and < 10 nM, the TGI (KM12 colon) was > 10000 nM and 5650 nM and the GI50 (LOX IMVI melanoma) was 4.14 nM and < 10 nM. For the same compound, the TGI (LOX IMVI melanoma) was 1330 nM and 1530 nM, the GI50 (M14 melanoma) was 3.84 nM and < 10 nM and the TGI (M14 melanoma) was > 4220 nM and 2370 nM. For the same compound, the GI50 (MALME-3M melanoma) was 1120 nM and 1370 nM, the TGI (MALME-3M melanoma) was 2570 nM and 3390 nM and the GI50 (MCF7 breast) was 3.31 nM and < 10 nM. The TGI (MCF7 breast) was > 4960 nM and 5550 nM, the GI50 (MDA-MB-231 breast) was 5.52 nM and the TGI (MDA-MB-231 breast) was 3210 nM. The GI50 (MOLT-4 leukemia) was 3.87 nM and < 10 nM, the TGI (MOLT-4 leukemia) was 1390 nM and 579 nM and the GI50 (NCI-H226 lung) was 343 nM and 982 nM. The TGI (NCI-H226 lung) was > 10000 nM and 16800 nM, the GI50 (NCI-H23 lung) was 4.43 nM and < 10 nM and the TGI (NCI-H23 lung) was > 5030 nM and 6400 nM. For the same compound, the GI50 (NCI-H460 lung) was 3.86 nM and < 10 nM, the TGI (NCI-H460 lung) was > 10000 nM and 6640 nM and the GI50 (NCI-H522 lung) was 2.94 nM and < 10 nM. The TGI (NCI-H522 lung) was less than 56.1 nM, the GI50 (NCI/ADR-RES ovarian) was 351 nM and 244 nM and the TGI (NCI/ADR-RES ovarian) was > 10000 nM and 19000 nM. For the same compound, the GI50 (OVCAR-3 ovarian) was 3.53 nM and < 10 nM, the GI50 (OVCAR-4 ovarian) was 303 nM and 163 nM and the TGI (OVCAR-4 ovarian) was 9870 nM and 4400 nM. The GI50 (OVCAR-5 ovarian) was 4.08 nM and < 10 nM, the TGI (OVCAR-5 ovarian) was > 10000 nM and 11800 nM and the GI50 (OVCAR-8 ovarian) was 4.14 nM. The TGI (OVCAR-8 ovarian) was greater than 10000 nM, the GI50 (PC-3 prostate) was 4.54 nM and < 10 nM and the TGI (PC-3 prostate) was > 10000 nM and 19100 nM. The GI50 (RPMI-8226 leukemia) was 19.8 nM and 39.5 nM, the TGI (RPMI-8226 leukemia) was 1690 nM and 1910 nM and the GI50 (RXF 393 renal) was 4.7 nM and < 10 nM. For the same compound, the TGI (RXF 393 renal) was 627 nM and 576 nM, the GI50 (SF-268 CNS) was 15.6 nM and < 10 nM and the TGI (SF-268 CNS) was > 10000 nM and 7800 nM. For the same compound, the GI50 (SF-295 CNS) was 14.7 nM and 18.9 nM, the TGI (SF-295 CNS) was > 10000 nM and 15000 nM and the GI50 (SF-539 CNS) was 26.9 nM and 23.8 nM. For the same compound, the TGI (SF-539 CNS) was 352 nM and 583 nM, the TGI (SK-MEL-2 melanoma) was > 10000 nM and 6290 nM and the TGI (SK-MEL-28 melanoma) was 3320 nM and 2590 nM. The GI50 (SK-MEL-5 melanoma) was 8.61 nM and 12.3 nM, the TGI (SK-MEL-5 melanoma) was 205 nM and 274 nM and the GI50 (SK-OV-3 ovarian) was 7.46 nM and < 10 nM. For the same compound, the TGI (SK-OV-3 ovarian) was 593 nM and 128 nM, the GI50 (SN12C renal) was 23.3 nM and 39 nM and the TGI (SN12C renal) was 4320 nM and 14100 nM. For the same compound, the GI50 (SNB-19 CNS) was 5.8 nM and < 10 nM, the TGI (SNB-19 CNS) was > 10000 nM and 20300 nM and the GI50 (SNB-75 CNS) was 4.11 nM and < 11.2 nM. For the same compound, the TGI (SNB-75 CNS) was 233 nM and 170 nM, the GI50 (SR leukemia) was 1.82 nM and < 10 nM and the GI50 (SW-620 colon) was 2.99 nM and < 10 nM. The TGI (SW-620 colon) was > 10000 nM and 3100 nM, the GI50 (T-47D breast) was 71.8 nM and 157 nM and the TGI (T-47D breast) was > 10000 nM and 6270 nM. The GI50 (TK-10 renal) was 285 nM and 123 nM, the TGI (TK-10 renal) was > 7360 nM and 5560 nM and the GI50 (U251 CNS) was 4.92 nM and < 10 nM. For the same compound, the TGI (U251 CNS) was > 10000 nM and 7790 nM, the GI50 (UACC-257 melanoma) was 903 nM and 103 nM and the TGI (UACC-257 melanoma) was > 5260 nM and 1980 nM. The GI50 (UACC-62 melanoma) was 10.1 nM and 25.2 nM, the TGI (UACC-62 melanoma) was > 4410 nM and 4210 nM and the GI50 (UO-31 renal) was 323 nM and 631 nM. For the same compound, the TGI (UO-31 renal) was > 3970 nM and 15100 nM.
